Earlier results on two substances are cited in paper PMC6476928 (Frontiers in Pharmacology, 2019).

For orientation: IC50 means the point on the concentration scale where inhibition reaches its midpoint. The term inhibition denotes the drop in the measured response relative to a control, in per cent.

Data set [1] relates to kv4.1. The following applies: X. laevis oocytes; cited from earlier work. From the text:
Supplement Data_Sheet_1.docx, table 1: Supplementary Table 1.Activity of spider toxins on Kv2 and Kv4 channel subtypes Activities of spider toxins against different subtypes of Kv2 and Kv4 potassium channels are reported as IC50 (nanomolar) or as percentage of current inhibition at a single dose (nanomolar). Affinity (IC50) measurements | column: kv4.1

Data set [2] concerns the target T1, Kv4.2 (Homo sapiens, UniProt Q9NZV8).
T1 sequence (Q9NZV8 1-630): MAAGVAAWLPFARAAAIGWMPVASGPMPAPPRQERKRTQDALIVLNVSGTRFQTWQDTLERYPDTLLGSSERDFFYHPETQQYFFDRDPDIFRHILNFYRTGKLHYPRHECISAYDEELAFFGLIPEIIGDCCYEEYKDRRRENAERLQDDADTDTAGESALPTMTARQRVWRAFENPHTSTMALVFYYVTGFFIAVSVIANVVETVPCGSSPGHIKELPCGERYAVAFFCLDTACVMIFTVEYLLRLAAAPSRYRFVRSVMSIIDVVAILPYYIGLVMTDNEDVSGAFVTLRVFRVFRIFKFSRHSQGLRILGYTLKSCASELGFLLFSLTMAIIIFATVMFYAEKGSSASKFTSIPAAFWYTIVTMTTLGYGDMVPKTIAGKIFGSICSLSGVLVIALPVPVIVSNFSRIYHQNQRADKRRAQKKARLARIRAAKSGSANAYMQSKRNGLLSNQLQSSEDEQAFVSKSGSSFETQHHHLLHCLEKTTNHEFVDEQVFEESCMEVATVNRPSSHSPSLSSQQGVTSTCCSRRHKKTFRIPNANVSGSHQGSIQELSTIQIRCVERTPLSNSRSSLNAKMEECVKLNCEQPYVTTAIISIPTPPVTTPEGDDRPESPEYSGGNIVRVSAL
T1 sequence (Q9NS61 1-270 partner): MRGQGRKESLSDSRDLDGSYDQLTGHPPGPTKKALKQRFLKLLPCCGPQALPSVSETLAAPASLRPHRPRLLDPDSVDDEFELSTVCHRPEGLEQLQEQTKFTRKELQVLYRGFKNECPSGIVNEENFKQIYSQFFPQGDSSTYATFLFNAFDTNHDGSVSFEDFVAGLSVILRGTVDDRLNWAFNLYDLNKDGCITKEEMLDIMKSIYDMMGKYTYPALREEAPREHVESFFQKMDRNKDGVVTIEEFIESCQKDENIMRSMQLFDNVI
The settings on record: X. laevis oocytes, cited from earlier work. From the text: (§1) Supplement Data_Sheet_1.docx, table 1: Supplementary Table 1.Activity of spider toxins on Kv2 and Kv4 channel subtypes Activities of spider toxins against different subtypes of Kv2 and Kv4 potassium channels are reported as IC50 (nanomolar) or as percentage of current inhibition at a single dose (nanomolar). Affinity (IC50) measurements | column: kv4.2 || Animal toxins target ion channels, and are thus valuable resources with potential therapeutic applications. The Kv4 subfamily from scorpion ([Maffie et al., 2013]; [Xie et al., 2014]) and spider venom ([Escoubas et al., 2002]; [Ebbinghaus et al., 2004]; [Yuan et al., 2007], [2012]; [DeSimone et al., 2009]) has a rich toxin pharmacology. HaTx, originally isolated from venom of the Chilean rose tarantula (Grammostola spatulata), inhibits Kv4.2 channels effectively, with similar affinity for Kv2.1 ([Swartz and MacKinnon, 1995]; [Swartz, 2007]). Other Kv4 channel inhibitors, Stromatoxin (ScTx1) fr ...

Data set [3] relates to kv2.1. The settings on record: X. laevis oocytes, Hill relation nH = 1; cited from earlier work.
From the text: as §1, with “kv2.1” for “kv4.2”

As to Stromatoxin [ScTx1, reference compound], the “activity on kv4.1” value in data set [1] is on record as “No O”. In data set [2] (Hill relation nH = 1), the IC50 is 1.2 nM.

hanatoxin [HaTx1, reference compound]: in data set [3], the IC50 is 42 nM. Moreover, the inhibition in data set [2] (500nM, read-out: percentage of current inhibition kv4.2) was 70%.
